Experimental data published in patent US20250215039A1, “NUCLEOSIDES FOR TREATING CANCER” (PRIMEFOUR THERAPEUTICS, INC., priority 2022, published 2025).
Read-outs that look alike come from different tables or passages of the source.

Tests used:
[1] = biological target: human cytidine deaminase (CDA) (Homo sapiens, UniProt P32320); assay: Metabolism by human cytidine deaminase (CDA), substrate absorbance at 290 nm
Protocol: Transfer 7.2 μl of each of the substrate DMSO stock in step 2 into a 500 μl 96-Well V-bottom Microplate, clear SBS footprint, cat #P-96-450V-C
Add 352.8 μl assay buffer to the wells
For deaminated product compounds mix 4 μl product with 196 μl assay buffer
This was incubated at 37° C. for 1 h. 200 μl of this mixture was transferred into the assay plate to serve as the product control.
Product+buffer: mix 80 ul of the 2.5× intermediate product stocks (from step 3) with 120 ul assay buffer into product control (no enzyme) wells
Incubate the plate alongside the 20 nM CDA enzyme intermediate stock at 37° C. to temperature equilibrate reagents
Add 120 μl of the 20 nM enzyme mix into the Substrate+CDA wells and start reading at 290 nm every 30 s for about 60 min
50 and 200 uM substrate and product
In 100 mM Tris, pH 7.5, 100 mM KCl, 0.8% carryover DMSO
5 min incubation at 37° C.
Absorbance at 290 nm every 30 s at 37° C. for 1 h using FlexStation 3
Convert A290 to concentration of substrate remaining at time t after enzyme addition:
[formula] • where: • St=absorbance reading of: substrate+CDA wells at time t • So=Average absorbance reading of: substrate+buffer wells • Po=Average absorbance reading of: product+buffer wells • [S]t=initial substrate concentration • Use GraphPad to plot [substrate] against time to calculate initial velocity or slope (μMs^−1) i.e. the linear range of each curve • Express rate in s^−1 by dividing initial velocity by the total enzyme concentration.
Plot rate against [substrate] and fit data to standard Michaelis Menten equation to obtain kcat and KM parameters.

[2] = system: cancer cell lines; assay: Cancer cell proliferation activity (CellTiterGlo, 72 h); assay type: cell-based; settings: 72 h, 72 h, read-out: IC50
How it was run: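 Readout is CellTiterGlo luminescence after 72 h compound exposure (0.1% DMSO final), started one day post-seeding, at 37 °C.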

Chain of human cytidine deaminase (CDA) (P32320 whole entry): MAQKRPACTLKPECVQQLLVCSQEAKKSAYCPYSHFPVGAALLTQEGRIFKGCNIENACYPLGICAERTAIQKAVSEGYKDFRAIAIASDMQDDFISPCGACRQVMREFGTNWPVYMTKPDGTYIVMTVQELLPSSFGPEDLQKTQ

`N#C[C@]1(CO)O[C@@H](n2cc(F)c(N)nc2=O)C[C@@H]1O` [Cpd. No. 6, (2R,3S,5R)-5-(4-amino-5-fluoro-2-oxopyrimidin-1(2H)-yl)-3-hydroxy-2-(hydroxymethyl)tetrahydrofuran-2-carbonitrile] was tested, and the “metabolism (deamination) by human CDA (line graph)” value ([1]; 12 nM CDA, 50 and 200 uM substrate, 37° C., pH 7.5, figure legends FIG. 4-9) was “not metabolized”, the “substrate conversion by CDA (Inactive)” value ([1]; rate of substrate conversion at 200 μM, could not be fitted) was “Inactive” and the IC50 ([2]; 5637 cell line (bladder)) was greater than 50 µM. The IC50 ([2]; CLS439 cell line (bladder)) was greater than 50 µM, the IC50 ([2]; HS729 cell line (muscle)) was greater than 50 µM and the IC50 ([2]; JAR cell line (placenta)) was greater than 50 µM. It also gave an IC50 ([2]; U20S cell line, bone) greater than 50 µM, an IC50 ([2]; Homo sapiens, 22Rv1, 72 h, 22RV1 cell line (prostate)) greater than 50 µM and an IC50 ([2]; Homo sapiens, 786-0, 72 h, 786O cell line (kidney)) greater than 50 µM. The IC50 ([2]; Homo sapiens, A204, 72 h, A204 cell line (muscle)) was 7.27 µM, the IC50 ([2]; Homo sapiens, A549, 72 h, A549 cell line, lung) was greater than 50 µM and the IC50 ([2]; Homo sapiens, A673, 72 h, A673 cell line (bone)) was greater than 50 µM. It also gave an IC50 ([2]; Homo sapiens, A2780, 72 h, A2780 cell line (ovary)) greater than 50 µM, an IC50 ([2]; Homo sapiens, A-375, 72 h, A375 cell line (skin)) greater than 50 µM and an IC50 ([2]; Homo sapiens, A-431, 72 h, A431 cell line (skin)) greater than 50 µM. The IC50 ([2]; Homo sapiens, ACHN, ACHN cell line (kidney)) was greater than 50 µM, the IC50 ([2]; Homo sapiens, ASPC1, 72 h, ASPC1 cell line (pancreas)) was greater than 50 µM and the IC50 ([2]; Homo sapiens, BT-20, 72 h, BT20 cell line (breast)) was greater than 50 µM. It also gave an IC50 ([2]; Homo sapiens, BXPC-3, 72 h, BXPC3 cell line (pancreas)) greater than 50 µM, an IC50 ([2]; Homo sapiens, C-33-A, C33A cell line, endometrial) greater than 50 µM and an IC50 ([2]; Homo sapiens, CAKI-1, 72 h, CAKI1 cell line (kidney)) greater than 50 µM. For the same molecule, the IC50 ([2]; Homo sapiens, COLO 205, 72 h, COLO205 cell line (colon)) was greater than 50 µM, the IC50 ([2]; Homo sapiens, COLO-678, 72 h, COLO678 cell line (colon)) was greater than 50 µM and the IC50 ([2]; Homo sapiens, Ca-Ski, CASKI cell line, endometrial) was greater than 50 µM. The IC50 ([2]; Homo sapiens, Caco-2, 72 h, CACO2 cell line (colon)) was greater than 50 µM, the IC50 ([2]; Homo sapiens, Calu-6, 72 h, CALU6 cell line (lung)) was greater than 50 µM and the IC50 ([2]; Homo sapiens, DLD-1, 72 h, DLD1 cell line (colon)) was greater than 50 µM. The IC50 ([2]; Homo sapiens, DU-145, 72 h, DU145 cell line (prostate)) was greater than 50 µM, the IC50 ([2]; Homo sapiens, EFO-21, 72 h, EFO21 cell line (ovary)) was greater than 50 µM and the IC50 ([2]; Homo sapiens, EJ-28, 72 h, EJ28 cell line (bladder)) was greater than 50 µM. It also gave an IC50 ([2]; Homo sapiens, Granta-519, 72 h, GRANTA-519 cell line (hematological)) of 0.46 µM, an IC50 ([2]; Homo sapiens, HCT-15, 72 h, HCT15 cell line (colon)) greater than 50 µM and an IC50 ([2]; Homo sapiens, HCT-116, 72 h, HCT116 cell line (colon)) greater than 50 µM. For the same molecule, the IC50 ([2]; Homo sapiens, HEK293, 72 h, HEK293 cell line (kidney)) was greater than 50 µM, the IC50 ([2]; Homo sapiens, HL-60, 72 h, HL-60 cell line (hematological)) was greater than 50 µM and the IC50 ([2]; Homo sapiens, HT-29, 72 h, HT29 cell line (colon)) was greater than 50 µM. For the same molecule, the IC50 ([2]; Homo sapiens, HT-1080, 72 h, HT1080 cell line (connective tissue)) was greater than 50 µM, the IC50 ([2]; Homo sapiens, HeLa, HELA cell line, endometrial) was greater than 50 µM and the IC50 ([2]; Homo sapiens, HepG2, 72 h, HEPG2 cell line (liver)) was greater than 50 µM. For the same molecule, the IC50 ([2]; Homo sapiens, Hs-578T, HS578T cell line, breast) was greater than 50 µM, the IC50 ([2]; Homo sapiens, IGROV-1, 72 h, IGROV1 cell line (ovary)) was greater than 50 µM and the IC50 ([2]; Homo sapiens, IMR-90, 72 h, IMR90 cell line, lung) was greater than 50 µM. It also gave an IC50 ([2]; Homo sapiens, J82, 72 h, J82 cell line (bladder)) greater than 50 µM, an IC50 ([2]; Homo sapiens, JEG-3, 72 h, JEG3 cell line (placenta)) greater than 50 µM and an IC50 ([2]; Homo sapiens, JIMT-1, 72 h, JIMT1 cell line (breast)) greater than 50 µM. The IC50 ([2]; Homo sapiens, K562, 72 h, K-562 cell line (hematological)) was greater than 50 µM, the IC50 ([2]; Homo sapiens, Kasumi 1, 72 h, KASUMI-1 cell line (hematological)) was greater than 50 µM and the IC50 ([2]; Homo sapiens, L-363, 72 h, L-363 cell line (hematological)) was greater than 50 µM. For the same molecule, the IC50 ([2]; Homo sapiens, LoVo, LOVO cell line (colon)) was greater than 50 µM, the IC50 ([2]; Homo sapiens, MCF7, 72 h, MCF7 cell line (breast)) was greater than 50 µM and the IC50 ([2]; Homo sapiens, MDA-MB-231, 72 h, MDAMB231 cell line (breast)) was greater than 50 µM. It also gave an IC50 ([2]; Homo sapiens, MDA-MB-435, 72 h, MDAMB435 cell line (skin)) greater than 50 µM, an IC50 ([2]; Homo sapiens, MDA-MB-436, 72 h, MDAMB436 cell line (breast)) greater than 50 µM and an IC50 ([2]; Homo sapiens, MDA-MB-468, 72 h, MDAMB468 cell line (breast)) greater than 50 µM. The IC50 ([2]; Homo sapiens, MG-63, 72 h, MG63 cell line (bone)) was greater than 50 µM, the IC50 ([2]; Homo sapiens, MHH-ES-1, 72 h, MHHES1 cell line (bone)) was greater than 50 µM and the IC50 ([2]; Homo sapiens, MIA PaCa-2, 72 h, MIAPACA2 cell line (pancreas)) was greater than 50 µM. It also gave an IC50 ([2]; Homo sapiens, MINO, MINO cell line (hematological)) of 0.68 µM, an IC50 ([2]; Homo sapiens, MV4-11, 72 h, MV4-11 cell line (hematological)) greater than 50 µM and an IC50 ([2]; Homo sapiens, NCI-H23, 72 h, NCI-H23 cell line (lung)) greater than 50 µM. For the same molecule, the IC50 ([2]; Homo sapiens, NCI-H82, 72 h, NCIH82 cell line (lung)) was greater than 50 µM, the IC50 ([2]; Homo sapiens, NCI-H292, 72 h, NCIH292 cell line (lung)) was greater than 50 µM and the IC50 ([2]; Homo sapiens, NCI-H460, 72 h, NCIH460 cell line (lung)) was greater than 50 µM. It also gave an IC50 ([2]; Homo sapiens, OVCAR-3, 72 h, OVCAR3 cell line (ovary)) greater than 50 µM, an IC50 ([2]; Homo sapiens, OVCAR-4, 72 h, OVCAR4 cell line (ovary)) greater than 50 µM and an IC50 ([2]; Homo sapiens, PANC-1, 72 h, PANC1 cell line (pancreas)) greater than 50 µM. It also gave an IC50 ([2]; Homo sapiens, PC-3, 72 h, PC3 cell line (prostate)) greater than 50 µM, an IC50 ([2]; Homo sapiens, PLC-PRF-5, 72 h, PLCPRF5 cell line (liver)) greater than 50 µM and an IC50 ([2]; Homo sapiens, Panc1005, 72 h, PANC1005 cell line (pancreas)) greater than 50 µM. The IC50 ([2]; Homo sapiens, RD, RD cell line (muscle)) was greater than 50 µM, the IC50 ([2]; Homo sapiens, Ramos, RAMOS cell line (hematological)) was 8.68 µM and the IC50 ([2]; Homo sapiens, SAOS-2, 72 h, SAOS2 cell line (bone)) was 2.05 µM. The IC50 ([2]; Homo sapiens, SF-268, 72 h, SF268 cell line (brain)) was greater than 50 µM, the IC50 ([2]; Homo sapiens, SF-295, 72 h, SF295 cell line (brain)) was greater than 50 µM and the IC50 ([2]; Homo sapiens, SK-BR-3, 72 h, SKBR3 cell line (breast)) was greater than 50 µM. The IC50 ([2]; Homo sapiens, SK-HEP1, 72 h, SKHEP1 cell line (liver)) was greater than 50 µM, the IC50 ([2]; Homo sapiens, SK-LMS-1, 72 h, SKLMS1 cell line (uterus)) was greater than 50 µM and the IC50 ([2]; Homo sapiens, SK-MEL-5, 72 h, SKMEL5 cell line, skin) was greater than 50 µM. For the same molecule, the IC50 ([2]; Homo sapiens, SK-MEL-28, 72 h, SKMEL28 cell line (skin)) was greater than 50 µM, the IC50 ([2]; Homo sapiens, SK-N-AS, SKNAS cell line (brain)) was greater than 50 µM and the IC50 ([2]; Homo sapiens, SK-N-SH, SKNSH cell line (brain)) was greater than 50 µM. For the same molecule, the IC50 ([2]; Homo sapiens, SK-OV-3, 72 h, SKOV3 cell line (ovary)) was greater than 50 µM, the IC50 ([2]; Homo sapiens, SNB-75, 72 h, SNB75 cell line (brain)) was greater than 50 µM and the IC50 ([2]; Homo sapiens, SU-DHL10, 72 h, SU-DHL-10 cell line (hematological)) was 2.55 µM. For the same molecule, the IC50 ([2]; Homo sapiens, SU-DHL-6, 72 h, SU-DHL-6 cell line (hematological)) was greater than 50 µM, the IC50 ([2]; Homo sapiens, SW-620, 72 h, SW620 cell line (colon)) was greater than 50 µM and the IC50 ([2]; Homo sapiens, T-24, 72 h, T24 cell line (bladder)) was greater than 50 µM. The IC50 ([2]; Homo sapiens, TE-671, 72 h, TE671 cell line (muscle)) was greater than 50 µM, the IC50 ([2]; Homo sapiens, THP-1, 72 h, THP-1 cell line (hematological)) was greater than 50 µM and the IC50 ([2]; Homo sapiens, U-87 MG, U87MG cell line (brain)) was greater than 50 µM. The IC50 ([2]; Homo sapiens, UMUC3, 72 h, UMUC3 cell line (bladder)) was greater than 50 µM, the IC50 ([2]; Homo sapiens, UO-31, 72 h, UO31 cell line (kidney)) was greater than 50 µM and the IC50 ([2]; Homo sapiens, WSU-NHL, WSU-NHL cell line (hematological)) was 2.32 µM. It also gave an IC50 ([2]; MT-3, 72 h, MT3 cell line (breast)) greater than 50 µM, an IC50 ([2]; NCI-H358M, NCIH358M cell line (lung)) greater than 50 µM and an IC50 ([2]; PBMC, PBMC (hematological)) greater than 50 µM. For the same molecule, the IC50 ([2]; RD-ES, RDES cell line (bone)) was greater than 50 µM.
